Measurements from patent US20230285374A1, “THERAPEUTIC METHODS USING VADADUSTAT” (Akebia Therapeutics, Inc., priority 2019, published 2023).

Tested on: subjects with anemia and Hemodialysis-Dependent Chronic Kidney Disease (HD-CKD) converting from ESA
Assay: Phase 3 randomized, double-blinded, active-controlled study in Hemodialysis-Dependent CKD (HD-CKD), Compound 1 vs darbepoetin alfa, 52 weeks
Type: in vivo, human
Text: This example describes a phase 3 randomized, double-blinded, active-controlled study to evaluate the efficacy and safety of oral Compound 1 for the maintenance treatment of anemia in subjects with Hemodialysis-Dependent Chronic Kidney Disease (HD-CKD) in approximately 300 subjects. Efficacy and safety of Compound 1 was compared with darbepoetin alfa for the maintenance treatment of anemia in subjects with DD-CKD after conversion from current ESA therapy.
Subjects deemed eligible for into the study included those who: • Be at least 20 years of age, inclusive; • Have diagnosis of Chronic Kidney Disease; • Be receiving hemodialysis or hemodialysis filtration at least three (3) times per week for ≥12 weeks before screening; • Be receiving the same formulation of ESA using the same administration route and the same dose interval (the dose interval should be the one described in the package insert for the ESA formulation) within 8 weeks prior to the first day of the screening period, using the dosages described below: Epoetin alfa and epoetin beta and kappa: ≥9,000 IU every weeks Darbepoetin alfa: ≥60 μg every weeks Epoetin beta pegol: ≥250 μg every 4 weeks • Have a mean of the most recent Hb levels at screening in the range of ≥9.5 to ≥12.0 g/dL. • Have a difference of <1.5 g/dL in Hb for the latest two tests in the screening period; • Have serum ferritin values of ≥100 ng/mL or transferrin saturation of ≥20% during the screening period; and • Have folic acid and vitamin B12 values above standard minimum values during the screening period.
Subjects deemed ineligible for inclusion in the study included those who: • Have anemia due to a cause other than CKD; • Have active bleeding or blood loss; • Have received a red blood cell transfusion; • Have uncontrolled hypertension; • Have active ocular fundus disease or cannot undergo an ocular fundus examination; • Have been diagnosed with cardiovascular disease, malignancy, or hemisiderosis;
Average Hb level at weeks 20 and 24 of the treatment period.
Hb level at each treatment visit; and
The proportion of patients within the target Hb range (above: ≥12.0 g/dL; within: 10.0-12.0 g/dL; below: <10.0 g/dL).
Safety endpoints for this study were defined as follows: • Adverse events (AEs); • Adverse drug reactions; and
Other endpoints for this study were defined as follows: • Iron-related parameters: serum ferritin, transferrin saturation (TSAT), total iron-binding capacity (TIBC), hepcidin, serum iron, and monthly dose of iron by any route of administration (oral and intravenous); and • Red blood cell indices.
Noninferiority: Compound 1 was considered noninferior to Darbepoetin alfa if the 95% confidence interval (CI) lower limit for the difference between Compound 1 and Darbepoetin alfa in the Least Squares (LS) Mean of the average Hb at weeks 20 and 24 was more than or equal to the predefined noninferiority margin of −0.75 g/dL. Difference in LS Mean refers to mixed-model repeated measures (MMRM) with an unstructured covariance matrix within patients.
Subjects were randomized 1:1 to either • Compound 1 with an initial dose of 300 mg/once daily and adjusted to 150-600 mg/once daily; or • Darbepoetin alfa (IV) initial dose is as follows:
The aim is to maintain a Hb level of 10.0-12.0 g/dL throughout the study.
Dose Adjustment Algorithm: • Increases in the dose were not allowed to occur more frequently than once every 4 weeks. Decreases in dose were allowed to occur more frequently. Frequent dose adjustments were avoided. • If the Hb rose rapidly, the dose was reduced. • If the Hb fell below 10.0 g/dL, the dose was increased. • If the Hb level exceeded 12.0 g/dL, the dose was reduced.
All subjects start with an initial dose of 300 mg/day at baseline visit. Dose levels of Compound 1 include 150, 300, 450, and 600 mg. Each subject took his/her first dose of study medication at the investigative site at the baseline visit. Thereafter, study medication was taken once daily on an outpatient basis. […]

[1] = week 52 (LOCF) compared to baseline

O=C(O)CNC(=O)c1ncc(-c2cccc(Cl)c2)cc1O [Compound 1, Vadadustat]
Deaths due to AEs (52 weeks): 2 (1.2) n (%)
deaths reported (52 weeks, assessed as not related to study drug): two
LSMean of average Hb, weeks 20 and 24 (HD-CKD patients): 10.61 g/dL
mean Hb level at week 52 (HD-CKD patients): 10.39 g/dL
Difference (VDT-DA) in LSMean of average Hb, weeks 20 and 24 (HD-CKD patients, noninferiority margin −0.75 g/dL): -0.05 g/dL
proportion of patients with Hb levels within the target range of 10.0-12.0 g/dL (baseline): 81.5%
mean MCHC level, change (baseline to week 52): significantly increased
mean MCH level, change (baseline to week 52 (LOCF)): significantly increased
mean MCV level, change (baseline to week 52 (LOCF)): significantly increased
mean RDW, change (baseline to week 52 (LOCF)): significantly decreased
mean hepcidin level, change (baseline to week 52 (LOCF)): significantly decreased
mean total iron-binding capacity (TIBC), change (baseline to week 52 (LOCF)): significantly increased
LSMean Hb levels at week 52, subgroup analysis by patient background (dose adjustment 150-600 mg/day, target range 10.0-12.0 g/dL): maintained within the target range of 10.0-12.0 g/dL irrespective of the patient backgrounds
Adverse drug reaction (human, in vivo, 52 weeks): 18 (11.1) n (%)
Cardiovascular event, cardiac failure (AE of special interest) (human, in vivo, 52 weeks): 13 (8.0) n (%)
Diarrhea (human, in vivo, 52 weeks): 25 (15.4) n (%)
Discontinuation due to AEs (human, in vivo, 52 weeks): 16 (9.9) n (%)
Dose reduction or interruption of study drug due to AEs (human, in vivo, 52 weeks): 13 (8.0) n (%)
Hyperkalemia (AE of special interest) (human, in vivo, 52 weeks): 1 (0.6) n (%)
Malignancy (AE of special interest) (human, in vivo, 52 weeks): 7 (4.3) n (%)
Nasopharyngitis (human, in vivo, 52 weeks): 74 (45.7) n (%)
Pulmonary hypertension (AE of special interest) (human, in vivo, 52 weeks): 0 (0.0) n (%)
Retinal disorder (AE of special interest) (human, in vivo, 52 weeks): 21 (13.0) n (%)
Retinal hemorrhage (human, in vivo, 52 weeks): 9.9%
Serious AEs (human, in vivo, 52 weeks): 41 (25.3) n (%)
Serious adverse drug reaction (human, in vivo, 52 weeks): 0 (0.0) n (%)
Shunt stenosis (human, in vivo, 52 weeks): 23 (14.2) n (%)
Subjects with ≥ 1 AE (human, in vivo, 52 weeks): 154 (95.1) n (%)
diarrhea (human, in vivo, 52 weeks): 15.4%
incidence of AEs (human, in vivo, 52 weeks): 95.1%
incidence of serious AEs (human, in vivo, 52 weeks): 25.3%
nasopharyngitis (human, in vivo, 52 weeks): 45.7%
shunt stenosis (human, in vivo, 52 weeks): 14.2%
patients with a rapid rise in Hb levels (>2 g/dL/4 weeks) (in vivo): No patients
proportion of patients with an Hb excursion of ≥12 g/dL (in vivo): 25.3%
proportion of patients with an Hb excursion of ≥13 g/dL (in vivo): 3.7%
proportion of patients with Hb levels within the target range of 10.0-12.0 g/dL (week 24): 75.4%
proportion of patients with Hb levels within the target range of 10.0-12.0 g/dL (week 52): 75.7%
TSAT, change [1]: no significant differences
serum ferritin, change [1]: no significant differences
patients maintained within the target Hb range (weeks 24 and 52, dose adjusted per algorithm): approximately 80%
